Reference: PMC4511006 (PLoS ONE, 2015)
Values joined by “and” are separate entries in the source; they are usually repeats but may differ in a detail not shown here. Identical values can stand only once. Ends that are not written are not given here.

What was measured:
complement activation = conditions: Wistar rats, delivered IV; cited from earlier work
From the text: However, a serious limitation to these peptide analogs was their lack of solubility in aqueous solution. Given the aqueous solubility of PA-dPEG24, we set out to determine their efficacy in vivo.

[1] = test system: classical pathway complement activity in factor B-depleted human serum; assay: Hemolysis assay using factor-B depleted serum and antibody-sensitized sheep erythrocytes; assay type: biochemical; conditions: 0.77mM peptide in factor B-depleted serum; triplicate, mean; standardized to water or DMSO
Method: (§1) Soluble peptides were dissolved in water whereas insoluble peptides were reconstituted in DMSO. Results were standardized to water or DMSO, as appropriate.

[2] = target: T1, C1 complex (C1s bound to C1q) (Homo sapiens, UniProt P02745+P02746+P02747); assay: Displacement (competition ELISA) assay of C1s from C1; assay type: binding; conditions: C1 0.05μg; CP from 0.145μM, PA from 1.45μM (10-fold molar excess)
T1 construct: partially purified C1 complex was added to wells at a constant amount
T1 sequence (P02745 23-245): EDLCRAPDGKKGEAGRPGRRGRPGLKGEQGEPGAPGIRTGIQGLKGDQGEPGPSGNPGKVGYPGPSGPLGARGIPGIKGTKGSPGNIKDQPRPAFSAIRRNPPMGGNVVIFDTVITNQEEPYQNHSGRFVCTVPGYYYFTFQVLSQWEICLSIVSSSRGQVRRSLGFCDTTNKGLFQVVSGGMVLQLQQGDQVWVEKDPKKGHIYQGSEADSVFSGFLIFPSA
T1 sequence (P02746 28-253): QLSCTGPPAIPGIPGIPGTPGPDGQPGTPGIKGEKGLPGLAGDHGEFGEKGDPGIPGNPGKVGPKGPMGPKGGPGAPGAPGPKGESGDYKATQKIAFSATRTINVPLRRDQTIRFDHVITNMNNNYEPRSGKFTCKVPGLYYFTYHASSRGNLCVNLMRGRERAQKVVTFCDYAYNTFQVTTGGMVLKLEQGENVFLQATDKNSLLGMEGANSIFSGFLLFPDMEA
T1 sequence (P02747 29-245): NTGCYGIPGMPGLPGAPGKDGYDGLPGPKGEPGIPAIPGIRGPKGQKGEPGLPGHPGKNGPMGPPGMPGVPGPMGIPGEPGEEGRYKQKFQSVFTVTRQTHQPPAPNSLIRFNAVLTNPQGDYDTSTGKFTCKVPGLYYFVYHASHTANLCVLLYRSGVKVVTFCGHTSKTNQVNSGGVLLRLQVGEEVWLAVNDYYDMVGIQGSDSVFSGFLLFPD
Method: This was performed similarly to the competitive binding assay described by Hair et al., 2010 [8], with the following differences. Plates were coated with monoclonal antibody to C1q (Quidel) at 1:1000 overnight. In blocking buffer containing 2mM CaC1_2, partially purified C1 complex was added to wells at a constant amount (0.05μg) with decreasing amounts of either CP or PA, starting with concentrations for CP at 0.145μM and 1.45μM for PA. Detection of C1q and C1s was confirmed as described by Hair et al., 2010 [8].

Solubility in water = assay type: physicochemical
Method: as §1

intact C1q = target: intact C1q; parameters: method as in PMID 22906481; conditions: SPR; cited from earlier work
ficolin M (ficolin-1) = ficolin M (ficolin-1) (Homo sapiens, UniProt O00602); assay: ELISA, biotinylated PA binding to ficolin M; conditions: ficolin adsorbed at 10μg/mL, 0.4M NaCl in blocking buffer, compared with C1q
Sequence of ficolin M (ficolin-1) (O00602 30-326): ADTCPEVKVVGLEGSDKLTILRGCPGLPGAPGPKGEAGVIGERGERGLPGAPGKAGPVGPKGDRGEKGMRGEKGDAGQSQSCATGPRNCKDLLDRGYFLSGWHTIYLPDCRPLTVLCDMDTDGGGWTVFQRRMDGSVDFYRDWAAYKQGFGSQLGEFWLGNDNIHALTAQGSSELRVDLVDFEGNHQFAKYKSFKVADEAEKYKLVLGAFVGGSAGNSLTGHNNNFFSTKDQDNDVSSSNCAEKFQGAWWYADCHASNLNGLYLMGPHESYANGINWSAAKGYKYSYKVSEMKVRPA
Method: (§2) Wild-type recombinant ficolins L (ficolin-2), H (ficolin-3), M (ficolin-1) were adsorbed to a microtiter plate at 10μg/mL. C1q (25nM) and BSA (30μg/mL) were immobilized as controls. Plates were blocked with 3% BSA/PBST for 2h. Biotinylated PA was added at various concentrations in blocking buffer containing 0.4M NaCl (to reduce nonspecific binding) and incubated for 1h at room temperature. Following washing, wells were probed neutravidin-HRP (1:4000) in blocking buffer for 1h and developed as described above. Absorbance values from wells not incubated with biotinylated PA were subtracted as background.

C1q = target: T2, C1q (Homo sapiens, UniProt P02745+P02746+P02747); assay: Cross-linking of biotinylated PA to C1q with BS3, SDS-PAGE/western blot; assay type: binding; conditions: C1q:biotinylated PA 1:25, BS3 20μM
T2 construct: Purified C1q (1μg) was added to wells
T2 sequence (P02745 23-245): as the sequence (P02745 23-245) above
T2 sequence (P02746 28-253): as the sequence (P02746 28-253) above
T2 sequence (P02747 29-245): as the sequence (P02747 29-245) above
Method: Purified C1q and biotinylated PA, at a ratio of 1:25, were incubated in conjugation buffer (0.1M Na2HPO4, 0.15M NaCl, pH 8.0) at room temperature for 2.5h. The crosslinker BS^3 (Bis(sulfosuccinimidlyl) suberate, Pierce) was added to a final concentration of 20μM and the mixture was incubated for 30 min. The reaction was quenched with 1M Tris-HCl (pH 7.5) to a final concentration of […] for 15 min. Reactions were analyzed via SDS-PAGE (NU-PAGE Bis/Tris 4–12% gradient gel) and western blot using a 1:1500 dilution of streptavidin IR 680 (LiCor) for 1h, 1:2000 dilution of goat anti-C1q IgG (CompTech) for 1h and 1:10,000 dilution of donkey anti-goat IgG IR 800 (Licor) for 1h. Gels were analyzed on an Odyssey Infrared Imaging System (Licor) and identical gels were visualized with bio-safe Coomassie stain (Bio-Rad) to confirm total protein content.

ficolin L (ficolin-2) = ficolin L (ficolin-2) (Homo sapiens, UniProt Q15485); assay: ELISA, biotinylated PA binding to ficolin L; conditions: ficolin adsorbed at 10μg/mL, 0.4M NaCl in blocking buffer, compared with C1q
Sequence of ficolin L (ficolin-2) (Q15485 26-313): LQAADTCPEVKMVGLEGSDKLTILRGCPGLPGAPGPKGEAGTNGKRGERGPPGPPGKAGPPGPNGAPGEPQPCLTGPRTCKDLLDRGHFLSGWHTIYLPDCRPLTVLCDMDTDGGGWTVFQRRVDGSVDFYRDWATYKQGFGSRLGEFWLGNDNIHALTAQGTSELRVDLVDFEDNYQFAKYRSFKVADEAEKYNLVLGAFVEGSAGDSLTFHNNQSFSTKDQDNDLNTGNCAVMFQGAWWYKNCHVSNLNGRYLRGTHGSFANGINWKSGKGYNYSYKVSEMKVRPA
Method: as §2

ficolin H (ficolin-3) = ficolin H (ficolin-3) (Homo sapiens, UniProt O75636); assay: ELISA, biotinylated PA binding to ficolin H; conditions: ficolin adsorbed at 10μg/mL, 0.4M NaCl in blocking buffer, compared with C1q
Sequence of ficolin H (ficolin-3) (O75636 24-299): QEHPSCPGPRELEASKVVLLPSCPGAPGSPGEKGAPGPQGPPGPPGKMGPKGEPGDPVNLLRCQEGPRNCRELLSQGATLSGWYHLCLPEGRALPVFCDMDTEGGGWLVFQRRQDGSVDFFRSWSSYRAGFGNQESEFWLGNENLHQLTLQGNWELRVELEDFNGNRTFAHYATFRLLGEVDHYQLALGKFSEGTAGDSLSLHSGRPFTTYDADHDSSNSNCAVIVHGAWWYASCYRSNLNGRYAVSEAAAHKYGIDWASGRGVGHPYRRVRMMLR
Method: as §2

Row | Molecule | Hemolysis (%) [1] [%] | other results
1 | CC[C@H](C)[C@H](N)C(=O)N[C@@H](C)C(=O)N[C@@H](CC(C)C)C(=O)N[C@H](C(=O)N[C@@H](CC(C)C)C(=O)N[C@@H](CCC(=O)O)C(=O)N1CCC[C@H]1C(=O)N[C@H](C(=O)N[C@@H](CS)C(=O)N[C@@H](CS)C(=O)N[C@@H](CCC(N)=O)C(=O)N[C@@H](CCC(=O)O)C(=O)N[C@@H](CCCNC(=N)N)C(=O)N[C@@H](C)C(=O)N[C@@H](C)C(=O)O)[C@@H](C)CC)[C@@H](C)CC [PA] | 39.49 | inhibition of complement activation in vivo (complement activation): able to inhibit complement activation in Wistar rats; displacement of C1s from C1q [2]: did not demonstrate competitive displacement of C1s from C1q; solubility in water / aqueous solutions (Solubility in water): lack of solubility in aqueous solutions; Kd (intact C1q): 33.3 nM and 33 nM
2 | EALILEPICCQERAA [PA-I1E, glutamic acid substitution peptide of PA] | 89.27 | 
3 | IAEILEPICCQERAA [PA-L3E, glutamic acid substitution peptide of PA] | 100.27 | 
4 | IALELEPICCQERAA [PA-I4E, glutamic acid substitution peptide of PA] | 92.07 | 
5 | IALIEEPICCQERAA [PA-L5E, glutamic acid substitution peptide of PA] | 94.33 | 
6 | IALILEEICCQERAA [PA-P7E, glutamic acid substitution peptide of PA] | 96.10 | 
7 | IALILEPECCQERAA [PA-I8E, glutamic acid substitution peptide of PA] | 95.74 | 
8 | IALILEPICCEERAA [PA-Q11E] | 65.60 | 
9 | IALILEPICCQEEAA [PA-R13E] | 101.99 | 
10 | IALILEPICCQERAE [PA-A15E] | 93.13 | 
11 | IALILEPICCQERAR [PA-A15R] | 44.24 | 
12 | IALILEPICCQEREA [PA-A14E] | 98.09 | 
13 | IALILEPICCQERRA [PA-A14R] | 88.65 | 
14 | IALILEPICCQRRAA [PA-E12R] | 95.83 | 
15 | IALILEPICCRERAA [PA-Q11R] | 90.87 | 
16 | IALILEPRCCQERAA [PA-I8R, arginine substitution peptide of PA] | 62.32 | 
17 | IALILERICCQERAA [PA-P7R, arginine substitution peptide of PA] | 89.85 | 
18 | IALILRPICCQERAA [PA-E6R, arginine substitution peptide of PA] | 87.59 | 
19 | IALIREPICCQERAA [PA-L5R, arginine substitution peptide of PA] | 93.40 | 
20 | IALRLEPICCQERAA [PA-I4R, arginine substitution peptide of PA] | 43.71 | 
21 | IARILEPICCQERAA [PA-L3R, arginine substitution peptide of PA] | 80.45 | 
22 | IELILEPICCQERAA [PA-A2E, glutamic acid substitution peptide of PA] | 92.24 | 
23 | IRLILEPICCQERAA [PA-A2R, arginine substitution peptide of PA] | 87.28 | 
24 | RALILEPICCQERAA [PA-I1R, arginine substitution peptide of PA] | 91.93 | 
25 | biotinylated PA: C-terminally biotinylated PA peptide (IALILEPICCQERAA-biotin; cysteine pairing not given here) |  | binding to ficolin M (ficolin M (ficolin-1)): bound PA to the same degree as C1q; binding to C1q chains after cross-linking (C1q): can bind monomeric chains of C1q along with the dimers A-B and C-C; binding to ficolin L (ficolin L (ficolin-2)): bound PA to the same degree as C1q; binding to ficolin H (ficolin H (ficolin-3)): bound PA to the same degree as C1q
